In ChEMBL document CHEMBL3044951, “Synthesis and antimicrobial activity of dimethyl- and trimethyl-substituted phosphonium salts with alkyl chains of various lengths” (1994):
Active and inactive are the calls of the source. No cut-off for these calls is given here.

Key:
[1] = tested on: Geotrichum candidum; test: Antifungal activity against Galactomyces geotrichum IFO 6454 by spread plate method; type: functional
[2] = tested on: Klebsiella aerogenes; test: Antibacterial activity against Enterobacter aerogenes by spread plate method; type: functional
[3] = tested on: Trichoderma harzianum; test: Antifungal activity against Trichoderma harzianum by spread plate method; type: functional
[4] = tested on: Rhizopus stolonifer; test: Antifungal activity against Rhizopus stolonifer ATCC 6227 by spread plate method; type: functional
[5] = tested on: Penicillium citrinum; test: Antifungal activity against Penicillium citrinum ATCC 9849 by spread plate method; type: functional
[6] = tested on: Staphylococcus aureus; test: Bacteriostatic activity against methicillin-susceptible Staphylococcus aureus IFO 12732 by spread plate method; type: functional
[7] = tested on: Bacillus spizizenii; test: Bacteriostatic activity against Bacillus subtilis subsp. spizizenii ATCC 6633 by spread plate method; type: functional
[8] = tested on: Staphylococcus aureus; test: Bacteriostatic activity against methicillin-resistant Staphylococcus aureus by spread plate method; type: functional
[9] = tested on: Pseudomonas aeruginosa; test: Antibacterial activity against Pseudomonas aeruginosa ATCC 27853 by spread plate method; type: functional
[10] = tested on: Escherichia coli; test: Antibacterial activity against Escherichia coli IFO 3806 by spread plate method; type: functional
[11] = tested on: Escherichia coli; test: Antibacterial activity against Escherichia coli NIHJ by spread plate method; type: functional
[12] = tested on: Staphylococcus aureus; test: Bacteriostatic activity against methicillin-susceptible Staphylococcus aureus 209P by spread plate method; type: functional
[13] = tested on: Debaryomyces hansenii; test: Antifungal activity against Candida famata IFO 0380 by spread plate method; type: functional
[14] = tested on: Escherichia coli; test: Bactericidal activity against Escherichia coli IFO 3806 assessed as log10 reduction in viable cell count at 28 to 280 uM after 30 to 120 min by agar dilution test; type: functional, organism-based
[15] = tested on: Staphylococcus aureus; test: Bactericidal activity against methicillin-susceptible Staphylococcus aureus IFO 12732 assessed as log10 reduction in viable cell count at 28 uM up to 120 min by agar dilution test; type: functional
[16] = tested on: Staphylococcus aureus; test: Bactericidal activity against methicillin-susceptible Staphylococcus aureus IFO 12732 assessed as log10 reduction in viable cell count at 280 uM up to 30 min by agar dilution test; type: functional, organism-based
[17] = tested on: Escherichia coli; test: Bactericidal activity against Escherichia coli IFO 3806 assessed as log10 reduction in viable cell count at 2.8 to 280 uM after 30 to 120 min by agar dilution test; type: functional, organism-based
[18] = tested on: Staphylococcus aureus; test: Bactericidal activity against methicillin-susceptible Staphylococcus aureus IFO 12732 assessed as log10 reduction in viable cell count at 2.8 to 280 uM after 30 to 120 min by agar dilution test; type: functional, organism-based
[19] = tested on: Staphylococcus aureus; test: Bactericidal activity against methicillin-susceptible Staphylococcus aureus IFO 12732 assessed as log10 reduction in viable cell count at 28 uM up to 60 min by agar dilution test; type: functional, organism-based
[20] = tested on: Escherichia coli; test: Bactericidal activity against Escherichia coli IFO 3806 assessed as log10 reduction in viable cell count at 0.28 to 280 uM up to 30 min by agar dilution test; type: functional, organism-based
[21] = tested on: Staphylococcus aureus; test: Bactericidal activity against methicillin-susceptible Staphylococcus aureus IFO 12732 assessed as log10 reduction in viable cell count at 0.28 to 280 uM up to 30 min by agar dilution test; type: functional, organism-based
[22] = tested on: Staphylococcus aureus; test: Bactericidal activity against methicillin-susceptible Staphylococcus aureus IFO 12732 assessed as log10 reduction in viable cell count at 2.8 uM up to 120 min by agar dilution test; type: functional
[23] = tested on: Escherichia coli; test: Bactericidal activity against Escherichia coli IFO 3806 assessed as log10 reduction in viable cell count at 280 uM after 30 to 120 min by agar dilution test; type: functional, organism-based
[24] = tested on: Staphylococcus aureus; test: Bactericidal activity against methicillin-susceptible Staphylococcus aureus IFO 12732 assessed as log10 reduction in viable cell count at 280 uM after 30 to 120 min by agar dilution test; type: functional, organism-based
[25] = tested on: Escherichia coli; test: Bactericidal activity against Escherichia coli IFO 3806 assessed as log10 reduction in viable cell count at 2.8 uM up to 120 min by agar dilution test; type: functional
[26] = tested on: Staphylococcus aureus; test: Bactericidal activity against methicillin-susceptible Staphylococcus aureus IFO 12732 assessed as log10 reduction in viable cell count at 0.28 uM by agar dilution test; type: functional, organism-based
[27] = tested on: Staphylococcus aureus; test: Bactericidal activity against methicillin-susceptible Staphylococcus aureus IFO 12732 assessed as log10 reduction in viable cell count at 2.8 uM up to 30 min by agar dilution test; type: functional, organism-based

SMILES	MIC [1] [µg/mL]	MIC [2] [µg/mL]	MIC [3] [µg/mL]	MIC [4] [µg/mL]	MIC [5] [µg/mL]	MIC [6] [µg/mL]	MIC [7] [µg/mL]	MIC [8] [µg/mL]	MIC [9] [µg/mL]	MIC [10] [µg/mL]	MIC [11] [µg/mL]	MIC [12] [µg/mL]	MIC [13] [µg/mL]	further results
CCCCCCCCCC[P+](C)(C)Cc1ccc(CC)cc1.[Cl-] [DECYL(4-ETHYLBENZYL)DIMETHYLPHOSPHONIUM CHLORIDE]	6.25	25	> 200	> 200	200	0.78	1.56	1.56	200	12.5	12.5	0.78	12.5	
CCCCCCCCCCCCCC[N+](C)(C)C.[Cl-]														Activity [14]: Active; Activity [15]: >99.9%; Activity [16]: Active
CCCCCCCCCC[P+](C)(C)CCCCCCCCCC.[Cl-] [DIDECYLDIMETHYLPHOSPHONIUM CHLORIDE]	3.13	3.13	200	> 200	100	0.78	0.78	0.78	200	3.13	3.13	0.78	1.56	Activity [17]: Active; Activity [18]: Active
CCCCCCCCCCCCCCCCCC[N+](C)(C)C														Activity [19]: Active
CCCCCCCCCCCCCCCCCC[P+](C)(C)CCCCCCCCCCCCCCCCCC.[Cl-] [DIOCTADECYLDIMETHYLPHOSPHONIUM CHLORIDE]	> 200	> 200	> 200	> 200	> 200	100	> 200	> 200	> 200	> 200	> 200	100	> 200	Activity [15]: >99.99%; Activity [17]: Active
CCCCCCCCCCCCCCCCCC[P+](C)(C)Cc1ccc(CC)cc1.[Cl-] [(4-ETHYLBENZYL)DIMETHYL(OCTADECYL)PHOSPHONIUM CHLORIDE]	> 200	> 200	> 200	> 200	> 200	12.5	25	25	> 200	> 200	> 200	12.5	> 200	
CCCC[P+](CCCC)(CCCC)Cc1ccc(CC)cc1.[Cl-] [TRIBUTYL(4-ETHYLBENZYL)PHOSPHONIUM CHLORIDE]	> 200	> 200	> 200	> 200	> 200	50	100	50	> 200	> 200	> 200	50	> 200	
CCCCCCCCCCCCCC[P+](C)(C)C.[Cl-] [TETRADECYLTRIMETHYLPHOSPHONIUM CHLORIDE]	50	100	200	200	200	0.2	0.2	1.56	200	12.5	12.5	0.2	200	Activity [20]: Active; Activity [14]: Active; Activity [19]: Active; Activity [21]: Active
CCCCCCCCCCCCCC[P+](C)(C)CCCCCCCCCCCCCC.[Cl-] [DITETRADECYLDIMETHYLPHOSPHONIUM CHLORIDE]	> 200	> 200	> 200	> 200	> 200	12.5	100	200	> 200	> 200	> 200	12.5	> 200	Activity [22]: >99.999%; Activity [17]: Active; Activity [16]: Active; Activity [19]: Active
CCCCCCCCCC[P+](C)(C)C.[Cl-] [DECYLTRIMETHYLPHOSPHONIUM CHLORIDE]	> 200	> 200	> 200	> 200	> 200	3.13	50	50	> 200	200	200	3.13	> 200	Activity [23]: inactive; Activity [24]: inactive
CCCCCCCCCCCCCC[P+](C)(C)Cc1ccc(CC)cc1.[Cl-] [(4-ETHYLBENZYL)DIMETHYL(TETRADECYL)PHOSPHONIUM CHLORIDE]	6.25	200	> 200	> 200	> 200	1.56	1.56	1.56	200	200	200	1.56	6.25	
CCCCCCCCCC[N+](C)(C)CCCCCCCCCC														Activity [25]: inactive
CCCCCCCCCCCCCCCCCC[P+](C)(C)C.[Cl-] [OCTADECYLTRIMETHYLPHOSPHONIUM CHLORIDE]	> 200	> 200	> 200	> 200	> 200	0.78	3.13	1.56	> 200	> 200	> 200	0.78	12.5	Activity [20]: Active; Activity [26]: inactive; Activity [27]: Active; Activity [25]: >99.9%
